ChEMBL document CHEMBL3045874, “2,4-D based herbicidal ionic liquids” (Tetrahedron, 2012)

What was measured:
[1] = system: Capsella bursa-pastoris; experiment: Herbicidal activity against Capsella bursa-pastoris assessed as weed control at 0.02 M measured after 30 days of treatment relative to control; type: functional
[2] = system: Capsella bursa-pastoris; experiment: Herbicidal activity against Capsella bursa-pastoris assessed as weed control at 0.01 M measured after 30 days of treatment relative to control; type: functional
[3] = system: Capsella bursa-pastoris; experiment: Herbicidal activity against Capsella bursa-pastoris assessed as weed control at 0.02 M measured after 6 days of treatment relative to control; type: functional
[4] = system: Capsella bursa-pastoris; experiment: Herbicidal activity against Capsella bursa-pastoris assessed as weed control at 0.01 M measured after 6 days of treatment relative to control; type: functional
[5] = system: Thlaspi arvense; experiment: Herbicidal activity against Thlaspi arvense assessed as weed control at 0.02 M measured after 30 days of treatment relative to control; type: functional
[6] = system: Thlaspi arvense; experiment: Herbicidal activity against Thlaspi arvense assessed as weed control at 0.01 M measured after 30 days of treatment relative to control; type: functional
[7] = system: Thlaspi arvense; experiment: Herbicidal activity against Thlaspi arvense assessed as weed control at 0.02 M measured after 6 days of treatment relative to control; type: functional
[8] = system: Thlaspi arvense; experiment: Herbicidal activity against Thlaspi arvense assessed as weed control at 0.01 M measured after 6 days of treatment relative to control; type: functional
[9] = system: Chenopodium album; experiment: Herbicidal activity against Chenopodium album assessed as weed control at 0.02 M measured after 30 days of treatment relative to control; type: functional
[10] = system: Chenopodium album; experiment: Herbicidal activity against Chenopodium album assessed as weed control at 0.01 M measured after 30 days of treatment relative to control; type: functional
[11] = system: Chenopodium album; experiment: Herbicidal activity against Chenopodium album assessed as weed control at 0.02 M measured after 6 days of treatment relative to control; type: functional
[12] = system: Chenopodium album; experiment: Herbicidal activity against Chenopodium album assessed as weed control at 0.01 M measured after 6 days of treatment relative to control; type: functional
[13] = buffer
[14] = Decomposition temperature of the compound; type: physicochemical
[15] = Decomposition temperature of 5 % of the compound; type: physicochemical
[16] = Glass transition temperature of the compound; type: physicochemical
[17] = Melting point of the compound; type: physicochemical
[18] = system: Centaurea cyanus; experiment: Herbicidal activity against Centaurea cyanus assessed as weed control at 450 g/ha; type: functional
[19] = system: Chenopodium album; experiment: Herbicidal activity against Chenopodium album assessed as weed control at 450 g/ha; type: functional
[20] = Cold crystallization temperature of the compound; type: physicochemical

O=C([O-])COc1ccc(Cl)cc1Cl.[Na+]
Activity [1]: 100% | Activity [2]: 100% | Activity [3]: 55% | Activity [4]: 28% | Activity [5]: 100% | Activity [6]: 100% | Activity [7]: 48% | Activity [8]: 31% | Activity [9]: 75% | Activity [10]: 25% | Activity [11]: 60% | Activity [12]: 55%

CCCC[N+]1(C)CCOCC1.O=C([O-])COc1ccc(Cl)cc1Cl
solubility [13]: soluble

CCCC[N+]1(C)CCCC1.O=C([O-])COc1ccc(Cl)cc1Cl
solubility [13]: soluble

CCCCCOC[N+]1(C)CCCCC1.O=C([O-])COc1ccc(Cl)cc1Cl
solubility [13]: soluble

CCCOC[N+]1(C)CCCCC1.O=C([O-])COc1ccc(Cl)cc1Cl
solubility [13]: soluble

C[N+]1(C)CCCCC1.O=C([O-])COc1ccc(Cl)cc1Cl
solubility [13]: soluble

C[n+]1cccc(C(N)=O)c1.O=C([O-])COc1ccc(Cl)cc1Cl
solubility [13]: soluble

CCCCCCCCCCCCCCCC[n+]1ccccc1.O=C([O-])COc1ccc(Cl)cc1Cl
solubility [13]: soluble

CCCCCCCCSCn1cc[n+](C)c1.O=C([O-])COc1ccc(Cl)cc1Cl
solubility [13]: soluble

CCCCCCCCOCn1cc[n+](C)c1.O=C([O-])COc1ccc(Cl)cc1Cl
solubility [13]: soluble

CCCCCCCCCCSC[N+](C)(C)CCO.O=C([O-])COc1ccc(Cl)cc1Cl
T [14]: 219 °C | T [15]: 205 °C | T [16]: -35 °C | solubility [13]: soluble

C[N+](C)(CCO)COC1CCCCCCCCCCC1.O=C([O-])COc1ccc(Cl)cc1Cl
T [14]: 280 °C | T [15]: 242 °C | Tm [17]: 108 °C

CNC.O=C(O)COc1ccc(Cl)cc1Cl [2,4-D-Dimethylammonium]
Activity [18]: 20% | Activity [19]: 60%

CCCCCC(CC)OC(=O)COc1ccc(Cl)cc1Cl [2,4-D-Ethylhexyl]
Activity [18]: 80% | Activity [19]: 100%

C=CC[N+](C)(C)CC=C.O=C([O-])COc1ccc(Cl)cc1Cl [DIALLYLDIMETHYLAMMONIUM(2,4-DICHLOROPHENOXY)ACETATE]
T [14]: 196 °C | T [15]: 187 °C | T [16]: -42 °C | solubility [13]: soluble

CCCCCCCCCC[N+](C)(C)CCCCCCCCCC.O=C([O-])COc1ccc(Cl)cc1Cl [DIDECYLDIMETHYLAMMONIUM(2,4-DICHLOROPHENOXY)ACETATE]
Activity [1]: 100% | Activity [2]: 100% | Activity [3]: 99% | Activity [4]: 81% | Activity [5]: 100% | Activity [6]: 100% | Activity [7]: 96% | Activity [8]: 82% | Activity [9]: 100% | Activity [10]: 100% | Activity [11]: 98% | Activity [12]: 89% | T [20]: -39 °C | T [14]: 260 °C | T [15]: 208 °C | Tm [17]: -3 °C | T [16]: -50 °C

CCCCCCCCCCCCCCCC[N+](C)(C)CCO.O=C([O-])COc1ccc(Cl)cc1Cl [DODECYLDI(POLYOXYETHYLENE)METHYLAMMONIUM(2,4-DICHLOROPHENOXY)ACETATE]
T [14]: 285 °C | T [15]: 219 °C | T [16]: -54 °C

CCCCCCCCCCCC[N+](C)(C)CCOc1ccccc1.O=C([O-])COc1ccc(Cl)cc1Cl [DODECYLDIMETHYLPHENOXYETHYLAMMONIUM(2,4-DICHLOROPHENOXY)ACETATE]
T [14]: 273 °C | T [15]: 214 °C | T [16]: -42 °C

CCCCCCCCCCCCCCCC[N+](C)(C)C.O=C([O-])COc1ccc(Cl)cc1Cl [HEXADECYLTRIMETHYLAMMONIUM(2,4-DICHLOROPHENOXY)ACETATE]
T [14]: 253 °C | T [15]: 218 °C | Tm [17]: -20 °C
